Results: patent US10947389B2, “Composition, film, near infrared cut filter, laminate, pattern forming method, solid image pickup element, image display device, infrared sensor, and color filter” (FUJIFILM Corporation, priority 2016, dated 2021)

Assays:
[1] = Evaluation of solubility in water at 23° C.; format: physicochemical; settings: stirred for 1 hour
Experimental: Each of the compounds was added to water at 23° C. under the atmospheric pressure, the components were stirred for 1 hour, and the solubility of the compound in water was obtained. The solubility of the compound was evaluated based on the following criteria.
A: the solubility in water at 23° C. was 0.1 mass % or lower
B: the solubility in water at 23° C. was higher than 0.1 mass % and 1 mass % or lower
C: the solubility in water at 23° C. was higher than 1 mass %

[2] = Evaluation of absorption maximum and absorbance ratio (500 nm/λmax) in solution; format: physicochemical; settings: for Absorbance Ratio (500 nm/λmax) / Absorption Maximum (nm): solvent chloroform; for λmax (nm) of Second Near Infrared Absorbing Compound: as listed in Table 58
Description: In this specification, “having an absorption maximum in a wavelength range of 650 to 1000 nm” denotes having a maximum absorbance in a wavelength range of 650 to 1000 nm in an absorption spectrum of the near infrared absorbing compound in a solution. Examples of a measurement solvent used for the measurement of the absorption spectra of the near infrared absorbing compound in the solution include chloroform, methanol, dimethyl sulfoxide, ethyl acetate, and tetrahydrofuran. In the case of a compound which is soluble in chloroform, chloroform is used as the measurement solvent. In the case of a compound which is not soluble in chloroform, methanol is used. In addition, In the case of a compound which is not soluble in chloroform and methanol, dimethyl sulfoxide is used.
Each of the compounds was dissolved in a measurement solvent shown in the following tables (concentration: 2.5×10^−6 mol/L) to measure an absorption spectrum (optical path length: 10 mm).
In addition, an absorbance ratio (500 nm/λmax) as a value obtained by dividing an absorbance at a wavelength of 500 nm by an absorbance at an absorption maximum was evaluated based on the following criteria.
A: the absorbance ratio (500 nm/λmax) was 0.04 or lower
B: the absorbance ratio (500 nm/λmax) was higher 0.04 and 0.08 or lower
C: the absorbance ratio (500 nm/λmax) was higher than 0.08

Structure (SMILES) | Absorption Maximum (nm) [2] | λmax (nm) of Second Near Infrared Absorbing Compound [2] | Second Near Infrared Absorbing Compound λmax (nm) ([2]; absorption maximum of the second near infrared absorbing compound) | Solubility [1] | Absorbance Ratio (500 nm/λmax) [2]
CCCCC(CC)CC(=O)NC1=CC(=[N+](c2ccc(C)cc2)c2ccc(C)cc2)C=C/C1=C1\C(=O)C(c2ccc(N(c3ccc(C)cc3)c3ccc(C)cc3)cc2NC(=O)CC(CC)CCCC)=C1[O-] (centres unmarked) [Compound Q-3] | 737 nm |  |  | A (the solubility in water at 23 °C was 0.1 mass % or lower) | A (the absorbance ratio (500 nm/λmax) was 0.04 or lower)
CCCCC(CC)CC(=O)Nc1cc2c(cc1C1=C([O-])/C(=c3/cc4c(cc3NC(=O)CC(CC)CCCC)=[N+](C)C(C)C4(C)C)C1=O)C(C)(C)C(C)N2C (centres unmarked) [Compound Q-36] | 704 nm | 704 nm |  | A (the solubility in water at 23 °C was 0.1 mass % or lower) | A (the absorbance ratio (500 nm/λmax) was 0.04 or lower)
CC(CCC(COc1ccc(-c2c3/c(=C(\C#N)c4cnc5cc(Cl)c(Cl)cc5n4)n(B(c4ccccc4)c4ccccc4)c(-c4ccc(O)cc4)c3/c(=C(\C#N)c3cnc4cc(Cl)c(Cl)cc4n3)n2B(c2ccccc2)c2ccccc2)cc1)C(C)CC(C)(C)C)CC(C)(C)C (centres unmarked) [Compound V-42] | 885 nm |  |  | A (the solubility in water at 23 °C was 0.1 mass % or lower) | A (the absorbance ratio (500 nm/λmax) was 0.04 or lower)
CC(CCC(COc1ccc(-c2c3c(=C(C#N)c4nc5ccccc5o4)n(B(c4ccccc4)c4ccccc4)c(-c4ccc(OCC(CCC(C)CC(C)(C)C)C(C)CC(C)(C)C)cc4)c3c(=C(C#N)c3nc4ccccc4o3)n2B(c2ccccc2)c2ccccc2)cc1)C(C)CC(C)(C)C)CC(C)(C)C (centres unmarked) [II-10] | 740 nm |  |  | A (the solubility in water at 23 °C was 0.1 mass % or lower) | A (the absorbance ratio (500 nm/λmax) was 0.04 or lower)
Cc1ccccc1B(c1ccccc1C)n1c(-c2ccc(OCC(CCCCCCCC(C)C)CCCCCC(C)C)cc2)c2c(=C(C#N)c3nc4ccccc4o3)n(B(c3ccccc3C)c3ccccc3C)c(-c3ccc(OCC(CCCCCCCC(C)C)CCCCCC(C)C)cc3)c2c1=C(C#N)c1nc2ccccc2o1 (centres unmarked) [II-43] | 732 nm |  |  | A (the solubility in water at 23 °C was 0.1 mass % or lower) | A (the absorbance ratio (500 nm/λmax) was 0.04 or lower)
Cc1ccccc1B(c1ccccc1C)n1c(-c2ccc(OCC(CCC(C)CC(C)(C)C)C(C)CC(C)(C)C)cc2)c2/c(=C(\C#N)c3nc4ccccc4o3)n(B(c3ccccc3C)c3ccccc3C)c(-c3ccc(OCC(CCC(C)CC(C)(C)C)C(C)CC(C)(C)C)cc3)c2/c1=C(\C#N)c1nc2ccccc2o1 (centres unmarked) [II-44] | 732 nm |  |  | A (the solubility in water at 23 °C was 0.1 mass % or lower) | A (the absorbance ratio (500 nm/λmax) was 0.04 or lower)
Cc1ccc2oc(C(C#N)=c3c4c(-c5ccc(OCC(CCCCCCCC(C)C)CCCCCC(C)C)cc5)n(B(c5ccccc5)c5ccccc5)c(=C(C#N)c5nc6cc(C)ccc6o5)c4c(-c4ccc(OCC(CCCCCCCC(C)C)CCCCCC(C)C)cc4)n3B(c3ccccc3)c3ccccc3)nc2c1 (centres unmarked) [II-167] | 745 nm |  |  | A (the solubility in water at 23 °C was 0.1 mass % or lower) | A (the absorbance ratio (500 nm/λmax) was 0.04 or lower)
Cc1ccc2oc(/C(C#N)=c3/c4c(-c5ccc(O)cc5)n(B(c5ccccc5)c5ccccc5)/c(=C(/C#N)c5nc6cc(C)ccc6o5)c4c(-c4ccc(O)cc4)n3B(c3ccccc3)c3ccccc3)nc2c1 [II-184] | 749 nm |  |  | A (the solubility in water at 23 °C was 0.1 mass % or lower) | A (the absorbance ratio (500 nm/λmax) was 0.04 or lower)
Cc1ccc2oc(/C(C#N)=c3/c4c(-c5cccc(OCC(CCC(C)CC(C)(C)C)C(C)CC(C)(C)C)c5)n(B(c5ccccc5)c5ccccc5)/c(=C(/C#N)c5nc6cc(C)ccc6o5)c4c(-c4cccc(OCC(CCC(C)CC(C)(C)C)C(C)CC(C)(C)C)c4)n3B(c3ccccc3)c3ccccc3)nc2c1 (centres unmarked) [II-186] | 748 nm |  | 743 nm | A (the solubility in water at 23 °C was 0.1 mass % or lower) | A (the absorbance ratio (500 nm/λmax) was 0.04 or lower)
Cc1ccc2oc(C(C#N)=c3c4c(-c5ccc(OCC(CCCCCCCC(C)C)CCCCCC(C)C)cc5)n(B(c5ccccc5C)c5ccccc5C)c(=C(C#N)c5nc6cc(C)ccc6o5)c4c(-c4ccc(OCC(CCCCCCCC(C)C)CCCCCC(C)C)cc4)n3B(c3ccccc3C)c3ccccc3C)nc2c1 (centres unmarked) [II-201] | 737 nm |  |  | A (the solubility in water at 23 °C was 0.1 mass % or lower) | A (the absorbance ratio (500 nm/λmax) was 0.04 or lower)

Continued, in another order:

Absorption Maximum (nm) [2] | λmax (nm) of Second Near Infrared Absorbing Compound [2] | Second Near Infrared Absorbing Compound λmax (nm) ([2]; absorption maximum of the second near infrared absorbing compound) | Structure (SMILES) | Solubility [1] | Absorbance Ratio (500 nm/λmax) [2]
822 nm |  |  | CCCCC(CC)COc1ccc(B2N=c3/c(=C4/C(=O)C(c5ccc6cccc7c6c5NB(c5ccc(OCC(CC)CCCC)cc5)N7)=C4O)ccc4cccc(c34)N2)cc1 (centres unmarked) [Compound Q-39] | A (the solubility in water at 23 °C was 0.1 mass % or lower) | A (the absorbance ratio (500 nm/λmax) was 0.04 or lower)
698 nm |  |  | CCCCN1/C(=C/C2=C([O-])C(=C/c3sc4c5ccccc5ccc4[n+]3CCCC)/C2=O)Sc2c1ccc1ccccc21 [Compound Q-54] | A (the solubility in water at 23 °C was 0.1 mass % or lower) | A (the absorbance ratio (500 nm/λmax) was 0.04 or lower)
740 nm |  |  | CC(C)CCCCCCCC(CCCCCC(C)C)COc1ccc(-c2c3c(=C(C#N)c4nc5ccccc5o4)n(B(c4ccccc4)c4ccccc4)c(-c4ccc(OCC(CCCCCCCC(C)C)CCCCCC(C)C)cc4)c3c(=C(C#N)c3nc4ccccc4o3)n2B(c2ccccc2)c2ccccc2)cc1 (centres unmarked) [II-9] | A (the solubility in water at 23 °C was 0.1 mass % or lower) | A (the absorbance ratio (500 nm/λmax) was 0.04 or lower)
743 nm | 743 nm |  | CC(C)CCCCCCCC(CCCCCC(C)C)COc1cccc(-c2c3c(=C(C#N)c4nc5ccccc5o4)n(B(c4ccccc4)c4ccccc4)c(-c4cccc(OCC(CCCCCCCC(C)C)CCCCCC(C)C)c4)c3c(=C(C#N)c3nc4ccccc4o3)n2B(c2ccccc2)c2ccccc2)c1 (centres unmarked) [II-27] | A (the solubility in water at 23 °C was 0.1 mass % or lower) | A (the absorbance ratio (500 nm/λmax) was 0.04 or lower)
743 nm | 743 nm |  | CCCCCCCCCCC(CCCCCCCC)COc1cccc(-c2c3/c(=C(\C#N)c4nc5ccccc5o4)n(B(c4ccccc4)c4ccccc4)c(-c4cccc(OCC(CCCCCCCC)CCCCCCCCCC)c4)c3/c(=C(\C#N)c3nc4ccccc4o3)n2B(c2ccccc2)c2ccccc2)c1 (centres unmarked) [II-29] | A (the solubility in water at 23 °C was 0.1 mass % or lower) | A (the absorbance ratio (500 nm/λmax) was 0.04 or lower)
679 nm | 679 nm |  | CC(C)CCCCCCCC(CCCCCC(C)C)COc1cccc(-c2c3c(=C(C#N)c4nc5ccccc5o4)n(B4Oc5ccccc5O4)c(-c4cccc(OCC(CCCCCCCC(C)C)CCCCCC(C)C)c4)c3c(=C(C#N)c3nc4ccccc4o3)n2B2Oc3ccccc3O2)c1 (centres unmarked) [II-91] | A (the solubility in water at 23 °C was 0.1 mass % or lower) | A (the absorbance ratio (500 nm/λmax) was 0.04 or lower)
745 nm |  |  | Cc1ccc2oc(C(C#N)=c3c4c(-c5ccc(OCC(CCC(C)CC(C)(C)C)C(C)CC(C)(C)C)cc5)n(B(c5ccccc5)c5ccccc5)c(=C(C#N)c5nc6cc(C)ccc6o5)c4c(-c4ccc(OCC(CCC(C)CC(C)(C)C)C(C)CC(C)(C)C)cc4)n3B(c3ccccc3)c3ccccc3)nc2c1 (centres unmarked) [II-168] | A (the solubility in water at 23 °C was 0.1 mass % or lower) | A (the absorbance ratio (500 nm/λmax) was 0.04 or lower)
748 nm |  |  | Cc1ccc2oc(C(C#N)=c3c4c(-c5cccc(OCC(CCCCCCCC(C)C)CCCCCC(C)C)c5)n(B(c5ccccc5)c5ccccc5)c(=C(C#N)c5nc6cc(C)ccc6o5)c4c(-c4cccc(OCC(CCCCCCCC(C)C)CCCCCC(C)C)c4)n3B(c3ccccc3)c3ccccc3)nc2c1 (centres unmarked) [II-185] | A (the solubility in water at 23 °C was 0.1 mass % or lower) | A (the absorbance ratio (500 nm/λmax) was 0.04 or lower)
737 nm |  |  | Cc1ccc2oc(/C(C#N)=c3/c4c(-c5ccc(OCC(CCC(C)CC(C)(C)C)C(C)CC(C)(C)C)cc5)n(B(c5ccccc5C)c5ccccc5C)/c(=C(/C#N)c5nc6cc(C)ccc6o5)c4c(-c4ccc(OCC(CCC(C)CC(C)(C)C)C(C)CC(C)(C)C)cc4)n3B(c3ccccc3C)c3ccccc3C)nc2c1 (centres unmarked) [II-202] | A (the solubility in water at 23 °C was 0.1 mass % or lower) | A (the absorbance ratio (500 nm/λmax) was 0.04 or lower)
